Measurements published in ChEMBL document CHEMBL1153703, “Cell-based optimization of novel benzamides as potential antimalarial leads” (Bioorg Med Chem Lett, 2009).

Assays:
Mus musculus [1] = assay: AUC (0 to 5 hrs) in BALB/c mouse at 20 mg/kg; type: ADME, organism-based, Plasma; parameters: time < 4 hr, dose 20 mg/kg; conditions: in vivo, 4 h
Mus musculus [2] = assay: Dose normalised AUC (0 to 5 hrs) in BALB/c mouse at 20 mg/kg, po; type: ADME, organism-based; parameters: time < 4 hr, dose 20 mg/kg, route oral; conditions: in vivo, 4 h
[3] = Selectivity index, TC50 for CHO cells to EC50 for chloroquine-sensitive Plasmodium falciparum 3D7; type: toxicity, cell-based; conditions: hamster, read-out: Selectivity Index
[4] = Selectivity index, TC50 for human Hep2 cells to EC50 for chloroquine-sensitive Plasmodium falciparum 3D7; type: toxicity, cell-based, HEp-2; conditions: read-out: Selectivity Index
[5] = Cytotoxicity against human Hep2 cells; type: cell-based, HEp-2; conditions: read-out: TC50 (the source's name)
[6] = Selectivity index, TC50 for human HeLa cells to EC50 for chloroquine-sensitive Plasmodium falciparum 3D7; type: toxicity, cell-based; conditions: read-out: Selectivity Index
[7] = Cytotoxicity against mouse BAF3 cells; type: cell-based; conditions: read-out: TC50 (the source's name)
[8] = Cytotoxicity against CHO cells; type: cell-based, Cricetulus griseus; conditions: chinese hamster, read-out: TC50 (the source's name)
[9] = Cytotoxicity against human HuH7 cells; type: cell-based, Huh-7; conditions: read-out: TC50 (the source's name)
[10] = Selectivity index, TC50 for human HuH7 cells to EC50 for chloroquine-sensitive Plasmodium falciparum 3D7; type: toxicity, cell-based, Huh-7; conditions: read-out: Selectivity Index
[11] = Cytotoxicity against human 293T cells; type: cell-based, HEK-293T; conditions: read-out: TC50 (the source's name)
[12] = Selectivity index, TC50 for mice (Mus musculus) BAF3 cells to EC50 for chloroquine-sensitive Plasmodium falciparum 3D7; type: toxicity, cell-based; conditions: read-out: Selectivity Index
[13] = Cytotoxicity against human HeLa cells; type: cell-based; conditions: read-out: TC50 (the source's name)

Structure (SMILES)	AUC (Mus musculus [1])	AUC (Mus musculus [2])	further results
O=C(Nc1cccc(C(F)(F)F)c1)c1cc(N2CCc3ccccc3C2)cc(C(F)(F)F)c1	1.67 µM·h	2.33 µg·min/mL	
O=C(Nc1cc(Cl)cc(Cl)c1)c1cc(N2CCC(N3CCCC3)CC2)cc(C(F)(F)F)c1	4.81 µM·h	7.01 µg·min/mL	
CC1CCN(C2CCN(c3cc(C(=O)Nc4cccc(Cl)c4)cc(C(F)(F)F)c3)CC2)CC1	7.93 µM·h	11.42 µg·min/mL	selectivity ratio [3]: > 20; selectivity ratio [4]: > 20; CC50 [5]: > 8 µM; selectivity ratio [6]: > 20; CC50 [7]: > 8 µM; CC50 [8]: > 8 µM; CC50 [9]: > 8 µM; selectivity ratio [10]: > 20; CC50 [11]: > 8 µM; selectivity ratio [12]: > 20; CC50 [13]: > 8 µM

More lines, main results first:

AUC (Mus musculus [1])	AUC (Mus musculus [2])	Structure (SMILES)	further results
4.37 µM·h	6.1 µg·min/mL	O=C(Nc1cccc(Cl)c1)c1cc(N2CCC(N3CCCCC3)CC2)cc(C(F)(F)F)c1	
4.77 µM·h	6.94 µg·min/mL	O=C(Nc1cc(N2CCC(N3CCCC3)CC2)cc(C(F)(F)F)c1)c1cccc(C(F)(F)F)c1	
3.92 µM·h	5.31 µg·min/mL	O=C(Nc1cccc(Cl)c1)c1cc(N2CCC(N3CCCC3)CC2)cc(C(F)(F)F)c1	
